Measured values as given in patent US9822382B2, “Process for making ethanol by fermentation” (Evonik Degussa GmbH, priority 2014, dated 2017).

Experiments:
Type in all cases: cell-based
Yeast [1] = assay: Yeast cell count and yeast cell viability, laboratory treatment of yeast cream and fermentation; details: for viability at 60 ppm: Example 4, 60 ppm
Protocol: (§1) Bacterial and yeast cell counts, yeast cell viability and yeast flocculation were determined as described in A. J. Oliveira et al., Curso de treinamento em microbiologia, Piracicaba: FERMENTEC and ESALQ, 1996 and in A. J. Oliveira et al., Métodos para o controle microbiológico na produção de açúcar e álcool, Piracicaba: FERMENTEC, FEALQ and ESALQ, 1996. Bacterial infection rates were calculated as the ratio of the rod bacteria cell count and the yeast cell count.
(§2) The examples were carried out with a yeast cream obtained by separating yeast from a fermented sugar cane mush from a sugar cane ethanol production mill operating with batch fermentation and yeast recycle. The yeast cream was diluted with water to a yeast cell content of about 24% by weight and the pH of the diluted yeast cream was adjusted to a value of 1.8 by adding sulfuric acid.
(§3) Then 322 ml of acidified diluted yeast cream were placed in a vessel and 678 ml of cane must having a pH of 6.2 were added with mixing in 5 portions with 1 h intervals between additions. Fermentation of the cane must with the acidified diluted yeast cream was carried out at 33° C. for 21 h. The final pH of the fermented mash was 4.8.
(§4) In example 2, equilibrium peroxyacetic acid PERACLEAN® 15 of Evonik was added to the acidified diluted yeast cream in an amount of 50 mg/l and the resulting treated yeast concentrate was kept at 30° C. for 1.7 hours before it was analyzed microbiologically. Thereafter, fermentation was carried out as in example 1.
(§5) Examples 1 and 2 were repeated without adding peroxyacetic acid in example 3 and with addition of equilibrium peroxyacetic acid PERACLEAN® 15 in an amount of 60 mg/l peroxyacetic acid in example 4. The treated yeast cream was kept at 30° C. for 2 hours before it was analyzed microbiologically and fermentation was started.
as §2, with “that operates” for “operating”, “fed-batch” for “batch”, “27%” for “24%”, “weight. The” for “weight and the”, “4.0.” for “adjusted to a value of 1.8 by adding sulfuric acid.”
(§6) In example 6, equilibrium peroxyacetic acid PERACLEAN® 15 of Evonik was added to the diluted yeast cream in an amount of 50 mg/l and the resulting treated yeast concentrate was kept at 30° C. for 2.3 hours before it was analyzed microbiologically.
(§7) In example 8, the pH of the diluted yeast cream was adjusted as in example 7, equilibrium peroxyacetic acid PERACLEAN® 15 of Evonik was added to the acidified diluted yeast cream in an amount of 50 mg/l and the resulting treated yeast concentrate was kept at 30° C. for 2.0 hours before it was analyzed microbiologically.

Rod bacteria = Rod bacteria cell count and infection rate, laboratory treatment of yeast cream and fermentation
Protocol: as §1, §2, §3, §4, §5
as §2, with “that operates” for “operating”, “fed-batch” for “batch”, “27%” for “24%”, “weight. The” for “weight and the”, “4.0.” for “adjusted to a value of 1.8 by adding sulfuric acid.”
as §6, §7

Yeast [2] = assay: Yeast viability and yeast flocculation in fermented mash, sugar cane ethanol production mill trial
Protocol: as §1
Examples 9 to 11 were carried out in a sugar cane ethanol production mill operating 6 fermenters in fed-batch. The fermented mash is sent to a centrifuge which separates yeast cream with an average yeast content of 63% by weight. The yeast cream is diluted with water to an average yeast content of 27% by weight and transferred to a stirred yeast cream recovery tank. Diluted yeast cream is passed continuously from this tank to a stirred yeast treatment tank at a rate of from 42 to 127 m^3/h. Sulfuric acid is added to the yeast treatment tank to maintain a pH in the range from 1.8 to 2.8. The average residence time in both the yeast cream recovery tank and the yeast treatment tank is in the range of from 1.3 to 4.0 h. Fermentation is carried out by charging the acidified yeast concentrate to a fermenter over a 1 to 2 h period, followed by feeding sugar cane mash with a sugar content of 22° Brix and a pH of 5.8 to the fermenter over a 6 h period. Fermentation is continued for a further 2 h without feed and the fermented mash is sent to a centrifuge. Bacterial contamination was monitored by microbiological analysis of samples of fermented mash taken before feeding the mash to a centrifuge. Samples were analyzed for bacterial and yeast cell counts and for yeast cell viability and yeast flocculation.
In example 9, equilibrium peroxyacetic acid PERACLEAN® 15 of Evonik was dosed to the yeast treatment tank for 28 h in an amount of 60 ppm during days 3 and 4 of the experiment. pH in the yeast treatment tank was maintained in the range of from 1.84 to 2.02.
In example 10, equilibrium peroxyacetic acid PERACLEAN® 15 of Evonik was dosed to the yeast treatment tank for 43 h during days 6 and 7 of the experiment in an amount that was lowered stepwise from 49 ppm to 20 ppm. pH in the yeast treatment tank was maintained in the range of from 1.97 to 2.60.
In example 11, equilibrium peroxyacetic acid PERACLEAN® 15 of Evonik was dosed to the yeast cream recovery tank on days 2 and 3 of the experiment for 13 h in an amount of 50 ppm, followed by dosing for 28 h in an amount of 30 ppm. During this period the pH in the yeast cream recovery tank was in the range of from 3.0 to 3.3. Then dosing of peroxyacetic acid to the yeast cream recovery tank was stopped and peroxyacetic acid was dosed to the yeast treatment tank for 18 h in an amount of 30 ppm. During this period the pH in the yeast treatment tank was about 2.0.

[3] = treatment of the yeast concentrate at pH 1.8 before using it for the fermentation
[4] = Example 2, 50 ppm, pH 1.8, fermented mash after 21 h
[5] = Example 2, 50 ppm, pH 1.8, treated yeast concentrate, 30° C. 1.7 hours
[6] = Example 4, 60 ppm, pH 1.8, fermented mash after 19 h
[7] = Example 4, 60 ppm, pH 1.8, treated yeast concentrate, 30° C. 2 hours
[8] = Example 6, 50 mg/l, no pH adjustment (pH 4.17), treated yeast concentrate, 30° C. 2.3 hours
[9] = Example 8, 50 mg/l, pH adjusted to 2.0 with sulfuric acid (pH 2.40), treated yeast concentrate, 30° C. 2.0 hours
[10] = Example 9, fermenter 2, day 3, 60 ppm to yeast treatment tank during days 3 and 4, pH 1.84 to 2.02
[11] = Example 9, fermenter 2, day 5, after addition (60 ppm, days 3 and 4) was stopped
[12] = Example 9, fermenter 4, day 3, 60 ppm to yeast treatment tank during days 3 and 4, pH 1.84 to 2.02
[13] = Example 10, fermenter 2, day 7, 49 ppm lowered stepwise to 20 ppm to yeast treatment tank during days 6 and 7, pH 1.97 to 2.60
[14] = Example 10, fermenter 2, day 8, after dosing during days 6 and 7
[15] = Example 10, fermenter 2, day 9, after dosing during days 6 and 7
[16] = Example 10, fermenter 3, day 7, 49 ppm lowered stepwise to 20 ppm to yeast treatment tank during days 6 and 7, pH 1.97 to 2.60
[17] = Example 10, fermenter 3, day 8, after dosing during days 6 and 7
[18] = Example 10, fermenter 3, day 9, after dosing during days 6 and 7
[19] = Example 11, fermenter 3, day 2, 50 ppm then 30 ppm to yeast cream recovery tank on days 2 and 3, pH 3.0 to 3.3
[20] = Example 11, fermenter 3, day 4, after recovery tank dosing, 30 ppm to yeast treatment tank for 18 h, pH about 2.0
[21] = Example 11, fermenter 6, day 3, 50 ppm then 30 ppm to yeast cream recovery tank on days 2 and 3, pH 3.0 to 3.3

Structure (SMILES): CC(=O)OO [peroxyacetic acid]
- viability at 50 ppm (Yeast [1]; Saccharomyces cerevisiae, Example 2, 50 ppm, pH 1.8, treated yeast concentrate, 30° C. 1.7 hours): 73%
- viability at 60 ppm (Yeast [1]; Saccharomyces cerevisiae, pH 1.8, fermented mash after 19 h): 80%
- viability at 60 ppm (Yeast [1]; Saccharomyces cerevisiae, pH 1.8, treated yeast concentrate, 30° C. 2 hours): 83%
- viability at 50 µg/mL (Yeast [1]; Saccharomyces cerevisiae, Example 6, 50 mg/l, no pH adjustment (pH 4.17), treated yeast concentrate, 30° C. 2.3 hours): 86%
- yeast viability in the fermentation (Yeast [1]; [3]): does not affect yeast viability
- Infection rate in % (Rod bacteria; [4]): 2.6%
- Rod bacteria cells/ml (Rod bacteria; [4]): 6.1*10^6 cells/ml
- Infection rate in % (Rod bacteria; [5]): 0.5%
- Rod bacteria cells/ml (Rod bacteria; [5]): 2.9*10^6 cells/ml
- Infection rate in % (Rod bacteria; [6]): 0.1%
- Rod bacteria cells/ml (Rod bacteria; [6]): 0.22*10^6 cells/ml
- Infection rate in % (Rod bacteria; [7]): 0.3%
- Rod bacteria cells/ml (Rod bacteria; [7]): 1.8*10^6 cells/ml
- Infection rate in % (Rod bacteria; [8]): 8.3%
- Rod bacteria cells/ml (Rod bacteria; [8]): 68*10^6 cells/ml
- Infection rate in % (Rod bacteria; [9]): 1.7%
- Rod bacteria cells/ml (Rod bacteria; [9]): 14*10^6 cells/ml
- effectiveness of treatment of the yeast concentrate against bacterial contamination (Rod bacteria; pH not adjusted to the claimed range by addition of acid (table 5)): ineffective
- combined effect of pH adjustment with mineral acid and peroxyacetic acid addition (Rod bacteria; table 5, Examples 5 to 8): synergistic effect
- bacterial contamination of the fermented mash (Rod bacteria; [3]): effective in preventing bacterial contamination
- Yeast flocculation in % (Yeast [2]; [10]): 53%
- Yeast viability in % (Yeast [2]; [10]): 79%
- Yeast flocculation in % (Yeast [2]; Example 9, fermenter 2, day 4, 60 ppm to yeast treatment tank during days 3 and 4, pH 1.84 to 2.02): 5%
- Yeast flocculation in % (Yeast [2]; [11]): 58%
- Yeast viability in % (Yeast [2]; [11]): 82%
- Yeast flocculation in % (Yeast [2]; [12]): 63%
- Yeast viability in % (Yeast [2]; [12]): 85%
- Yeast flocculation in % (Yeast [2]; Example 9, fermenter 4, day 4, 60 ppm to yeast treatment tank during days 3 and 4, pH 1.84 to 2.02): 0%
- Yeast flocculation in % (Yeast [2]; Example 9, fermenter 4, day 6, after addition (60 ppm, days 3 and 4) was stopped): 55%
- Yeast flocculation in % (Yeast [2]; Example 10, fermenter 2, day 6, 49 ppm lowered stepwise to 20 ppm to yeast treatment tank during days 6 and 7, pH 1.97 to 2.60): 0%
- Yeast flocculation in % (Yeast [2]; [13]): 0%
- Yeast viability in % (Yeast [2]; [13]): 75%
- Yeast flocculation in % (Yeast [2]; [14]): 0%
- Yeast viability in % (Yeast [2]; [14]): 79%
- Yeast flocculation in % (Yeast [2]; [15]): 37%
- Yeast viability in % (Yeast [2]; [15]): 79%
- Yeast flocculation in % (Yeast [2]; Example 10, fermenter 3, day 6, 49 ppm lowered stepwise to 20 ppm to yeast treatment tank during days 6 and 7, pH 1.97 to 2.60): 0%
- Yeast flocculation in % (Yeast [2]; [16]): 0%
- Yeast viability in % (Yeast [2]; [16]): 70%
- Yeast flocculation in % (Yeast [2]; [17]): 0%
- Yeast viability in % (Yeast [2]; [17]): 78%
- Yeast flocculation in % (Yeast [2]; [18]): 45%
- Yeast viability in % (Yeast [2]; [18]): 84%
- Yeast flocculation in % (Yeast [2]; [19]): 38%
- Yeast viability in % (Yeast [2]; [19]): 82%
- Yeast flocculation in % (Yeast [2]; [20]): 0%
- Yeast viability in % (Yeast [2]; [20]): 76%
- Yeast flocculation in % (Yeast [2]; Example 11, fermenter 3, day 6, after the dosing periods): 66%
- Yeast flocculation in % (Yeast [2]; Example 11, fermenter 6, day 2, 50 ppm then 30 ppm to yeast cream recovery tank on days 2 and 3, pH 3.0 to 3.3): 0%
- Yeast flocculation in % (Yeast [2]; [21]): 0%
- Yeast viability in % (Yeast [2]; [21]): 89%
- Yeast flocculation in % (Yeast [2]; Example 11, fermenter 6, day 5, after the dosing periods): 65%
